Source: patent US20050002991A1, “Prophylactic agent of hypertension containing a conjugated fatty acid as an effective ingredient and the use thereof” (RINORU OIL MILLS CO., LTD., priority 2003, published 2005)
Marks after values point to notes of the source that are not given here.

System: OLETF rats
Assay: Systolic blood pressure of OLETF rats fed CLA-supplemented diet (indirect tail cuff method)
Assay type: in vivo, rat
Settings: male OLETF rats; for Blood pressure, initial value / Blood pressure, 1 Week / Blood pressure, 2 Weeks / Blood pressure, 3 Weeks: systolic; for Blood pressure, initial value: baseline before feeding the diet supplemented with 0.5% of the substance; for Blood pressure, 1 Week / Blood pressure, 2 Weeks / Blood pressure, 3 Weeks: diet supplemented with 0.5% of the substance; for Blood pressure, 1 Week: 1 week of feeding; for Blood pressure, 2 Weeks: 2 weeks of feeding; for Blood pressure, 3 Weeks: 3 weeks of feeding; for Systolic blood pressure compared with control group (in words): 0.5% in diet, up to 3 weeks, control = high linoleic safflower oil
Text: Male OLETF rats (7 weeks old), an animal model of non-insulin dependent diabetes mellitus, were assigned to three groups that were fed ad libitum with a semisynthetic diet (AIN-76) supplemented with 0.5% high linoleic safflower oil (Rinoru Oil Mills Co., Ltd.; control group), or a semisynthetic diet supplemented with 0.5% 9cis,11trans-CLA, and a semisynthetic diet supplemented with 0.5% 10trans,12cis-CLA for three weeks. […]
It has been found from the above-described results that systolic blood pressure is lowered in rats fed with the 10trans, 12cis-CLA.

Compound | Blood pressure, initial value | Blood pressure, 1 Week | Blood pressure, 2 Weeks | Blood pressure, 3 Weeks | Systolic blood pressure compared with control group (in words) | Systolic blood pressure compared with control group (in words) (listed as 10trans,12cis-CLA)
CCCCCC/C=C/C=C\CCCCCCCC(=O)O [9cis, 11trans-CLA, 9cis,11trans-CLA] | 103 ± 3 mmHg | 131 ± 3 mmHg | 148 ± 4^a mmHg | 154 ± 4^a mmHg | – | –
CCCCC/C=C\C=C\CCCCCCCCC(=O)O [10trans, 12cis-CLA, 10trans,12cis-CLA] | 106 ± 4 mmHg | 125 ± 6 mmHg | 128 ± 5^b mmHg | 132 ± 3^b mmHg | lowered | significantly suppressed
conjugated linoleic acid [CLA] | – | – | – | – | tends to lower | –
